Measured values as given in patent US20070021360A1, “Compositions, formulations and kit with anti-sense oligonucleotide and anti-inflammatory steroid and/or obiquinone for treatment of respiratory and lung disesase” (priority 2001, published 2007).

Key:
adenosine A1 receptor = target: T1, adenosine A1 receptor (Oryctolagus cuniculus, UniProt P34970); assay: Adenosine A1 receptor binding ([3H]DPCPX) in airway smooth muscle membranes of treated rabbits; settings: for A1 receptor Bmax: [3H]DPCPX
T1 construct: Airway smooth muscle tissue was dissected from each rabbit and a membrane fraction prepared; from tissue; host or cells: rabbit airway smooth muscle, crude plasma membranes
T1 sequence (P34970 1-328): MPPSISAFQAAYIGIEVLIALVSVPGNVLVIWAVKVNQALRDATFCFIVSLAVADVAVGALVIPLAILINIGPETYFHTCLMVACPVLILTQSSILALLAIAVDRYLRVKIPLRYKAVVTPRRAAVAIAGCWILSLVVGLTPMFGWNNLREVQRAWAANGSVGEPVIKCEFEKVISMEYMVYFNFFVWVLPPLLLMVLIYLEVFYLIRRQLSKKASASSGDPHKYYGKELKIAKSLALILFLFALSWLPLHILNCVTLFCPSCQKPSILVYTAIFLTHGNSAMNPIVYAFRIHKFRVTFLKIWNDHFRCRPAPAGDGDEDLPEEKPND
Excerpt: At the conclusion of the cross-over experiment of Example 3 above, airway smooth muscle from all rabbits was quantitatively analyzed for adenosine A1 receptor number. As a control for the specificity of the anti-sense oligonucleotide, adenosine A2 receptors, which should not have been affected, were also quantified. Airway smooth muscle tissue was dissected from each rabbit and a membrane fraction prepared according to the method of Kleinstein et al. (Kleinstein, J. and Glossrnann, H., Naunyn-Schrniedeberg's Arch Pharmacol. 305: 191-200 (1978)), the relevant portion of which is hereby incorporated in its entirety by reference, with slight modifications. Crude plasma membrane preparations were stored at −70 EC until the time of assay. Protein content was determined by the method of Bradford (M. Bradford, Anal. Biochem. 72, 240-254 (1976), the relevant portion of which is hereby incorporated in its entirety by reference). Frozen plasma membranes were thawed at room temperature and were incubated with 0.2 U/ml adenosine deaminase for 30 minutes at 37 EC to remove endogenous adenosine. The binding of [^3H] DPCPX (A1 receptor-specific) or [^3H] CGS-21680 ([…]) was measured as previously described by Ali et al. (Ali, S. et al., J. Pharmacol. Exp. Ther. 268, Ara. J. Physiol 266, L271-277 (1994), the relevant portion of which is hereby incorporated in its entirety by reference). […] There was no change in adenosine A2 receptor number, as assayed by specific binding of the A2 receptor-specific agonist 2-[p-(2-carboxyethyl)-phenethylamino]-5′-(N-ethylcarboxamido) adenosine (CGS-21680). This is illustrated in Table 6 below.
(§1) A membrane fraction was prepared according to the method of Ali et al. (Ali, S., et al., Am. J. Resp. Crit Care Med. 149: 908 (1994), the relevant section relating to the preparation of the membrane fraction is incorporated in its entirety hereby by reference). The protein content was determined by the method of Bradford and plasma membranes were incubated with 0.2 U/ml adenosine deaminase for 30 minutes at 37 EC to remove endogenous adenosine. See, Bradford, M. M. Anal. Biochem. 72, 240-254 (1976), the relevant portion of which is hereby incorporated in its entirety by reference. The binding of [^3H]DPCPX, [^3H]NPC17731, or [^3H]CGS-21680 was measured as described by Jarvis et al. See, Jarvis, M. F., et al., Pharmacol. Exptl. Ther. 251, 888-893 (1989), the relevant portion of which is fully incorporated herein by reference.

B2 bradykinin receptor = target: T2, B2 bradykinin receptor (Oryctolagus cuniculus, UniProt Q28642); assay: Bradykinin B2 receptor binding ([3H]NPC 17731) in airway smooth muscle membranes of treated rabbits; set-up: species or system rabbit; settings: for B2 receptor Bmax: [3H]NPC 17731
T2 construct: Tissue from airway smooth muscle was dissected to primary, secondary and tertiary bronchi from rabbits; from tissue; host or cells: rabbit airway smooth muscle membranes
T2 sequence (Q28642 1-367): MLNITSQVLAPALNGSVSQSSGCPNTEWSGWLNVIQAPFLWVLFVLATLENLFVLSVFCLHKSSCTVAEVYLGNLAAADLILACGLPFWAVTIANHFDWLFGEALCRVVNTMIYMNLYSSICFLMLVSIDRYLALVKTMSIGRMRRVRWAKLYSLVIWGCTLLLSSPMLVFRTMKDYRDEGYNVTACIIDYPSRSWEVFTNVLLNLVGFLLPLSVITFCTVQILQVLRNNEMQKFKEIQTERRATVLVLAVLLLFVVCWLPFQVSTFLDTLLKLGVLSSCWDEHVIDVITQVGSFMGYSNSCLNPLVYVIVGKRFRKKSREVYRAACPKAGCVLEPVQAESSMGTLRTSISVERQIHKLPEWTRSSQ
Procedure: as §1

[1] = rabbits treated with 2 mg oligo
[2] = rabbits treated with 20 mg oligo

5′-GTAGCAGGCGGGGATGGGGGC-3′ [HAdA1MM1, reference compound]
Kd (adenosine A1 receptor; Kd of [3H]DPCPX in membranes of rabbits treated with 2 mg oligo): 0.37 ± 0.033 nM | Kd (adenosine A1 receptor; Kd of [3H]DPCPX in membranes of rabbits treated with 20 mg oligo): 0.34 ± 0.027 nM | A1 receptor Bmax (adenosine A1 receptor; [1]): 51.8 ± 3.88 fmol | A1 receptor Bmax (adenosine A1 receptor; [2]): 52.0 ± 3.64 fmol | A1-Specific Binding (adenosine A1 receptor; airway smooth muscle membranes after cross-over experiment, mean (n = 8) ± SEM): 1105 ± 48 | Kd (B2 bradykinin receptor; Kd of [3H]NPC 17731 in membranes of rabbits treated with 2 mg oligo): 0.38 ± 0.028 nM | Kd (B2 bradykinin receptor; Kd of [3H]NPC 17731 in membranes of rabbits treated with 20 mg oligo): 0.35 ± 0.024 nM | B2 receptor Bmax (B2 bradykinin receptor; [1]): 14.6 ± 1.02 fmol | B2 receptor Bmax (B2 bradykinin receptor; [2]): 14.0 ± 1.0 fmol
